Source: the kinase profiling compilation of Christmann-Franck et al. (2016)

How the values were obtained:
Assay in all cases: KINOMEscan competition binding
Conditions in all cases: compound 0.5 µM
ACVR2B (human) = ACVR2B (human) (UniProt Q13705)
ANKK1 (human) = ANKK1 (human) (UniProt Q8NFD2)
AXL (human) = AXL (human) (UniProt P30530)
BMX (human) = BMX (human) (UniProt P51813)
CAMK2A (human) = CAMK2A (human) (UniProt Q9UQM7)
CAMK2G (human) = CAMK2G (human) (UniProt Q13555)
CAMKK1 (human) = CAMKK1 (human) (UniProt Q8N5S9)
CDK2 (human) = CDK2 (human) (UniProt P24941)
CSNK1A1L (human) = CSNK1A1L (human) (UniProt Q8N752)
CSNK1A1L (human), sequence (Q8N752 whole entry, looked up): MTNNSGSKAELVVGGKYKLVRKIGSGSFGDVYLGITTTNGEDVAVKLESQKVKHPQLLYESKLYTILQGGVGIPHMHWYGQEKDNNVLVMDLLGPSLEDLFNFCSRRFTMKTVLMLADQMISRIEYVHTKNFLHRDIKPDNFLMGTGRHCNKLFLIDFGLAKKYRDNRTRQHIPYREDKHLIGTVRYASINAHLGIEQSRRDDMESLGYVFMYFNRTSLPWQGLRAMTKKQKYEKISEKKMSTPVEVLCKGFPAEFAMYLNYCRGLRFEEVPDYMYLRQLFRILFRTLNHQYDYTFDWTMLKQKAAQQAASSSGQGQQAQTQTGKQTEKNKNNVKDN

DCLK1 (human) = DCLK1 (human) (UniProt O15075)
DCLK1 (human), sequence (O15075 whole entry, looked up): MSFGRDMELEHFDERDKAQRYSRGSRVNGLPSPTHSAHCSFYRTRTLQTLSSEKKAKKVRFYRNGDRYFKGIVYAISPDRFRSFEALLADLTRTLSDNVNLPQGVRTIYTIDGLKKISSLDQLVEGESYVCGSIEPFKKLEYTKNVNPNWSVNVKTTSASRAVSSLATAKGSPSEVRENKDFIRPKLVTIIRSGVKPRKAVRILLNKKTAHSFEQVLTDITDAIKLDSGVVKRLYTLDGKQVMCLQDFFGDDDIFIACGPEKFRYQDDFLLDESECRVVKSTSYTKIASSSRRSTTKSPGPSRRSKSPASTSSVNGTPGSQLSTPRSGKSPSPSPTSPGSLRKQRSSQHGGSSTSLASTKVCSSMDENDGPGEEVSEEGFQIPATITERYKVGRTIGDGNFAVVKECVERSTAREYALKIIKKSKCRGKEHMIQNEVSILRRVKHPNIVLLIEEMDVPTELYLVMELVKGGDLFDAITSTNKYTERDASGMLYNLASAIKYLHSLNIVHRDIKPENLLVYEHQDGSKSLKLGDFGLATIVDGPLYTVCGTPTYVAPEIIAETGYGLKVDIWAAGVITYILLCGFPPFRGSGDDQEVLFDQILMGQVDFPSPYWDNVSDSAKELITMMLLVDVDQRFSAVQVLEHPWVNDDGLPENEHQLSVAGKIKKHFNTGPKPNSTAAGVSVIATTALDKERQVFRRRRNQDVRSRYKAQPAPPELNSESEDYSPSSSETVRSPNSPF

DDR1 (human) = DDR1 (human) (UniProt Q08345)
DDR1 (human), sequence (Q08345 whole entry, looked up): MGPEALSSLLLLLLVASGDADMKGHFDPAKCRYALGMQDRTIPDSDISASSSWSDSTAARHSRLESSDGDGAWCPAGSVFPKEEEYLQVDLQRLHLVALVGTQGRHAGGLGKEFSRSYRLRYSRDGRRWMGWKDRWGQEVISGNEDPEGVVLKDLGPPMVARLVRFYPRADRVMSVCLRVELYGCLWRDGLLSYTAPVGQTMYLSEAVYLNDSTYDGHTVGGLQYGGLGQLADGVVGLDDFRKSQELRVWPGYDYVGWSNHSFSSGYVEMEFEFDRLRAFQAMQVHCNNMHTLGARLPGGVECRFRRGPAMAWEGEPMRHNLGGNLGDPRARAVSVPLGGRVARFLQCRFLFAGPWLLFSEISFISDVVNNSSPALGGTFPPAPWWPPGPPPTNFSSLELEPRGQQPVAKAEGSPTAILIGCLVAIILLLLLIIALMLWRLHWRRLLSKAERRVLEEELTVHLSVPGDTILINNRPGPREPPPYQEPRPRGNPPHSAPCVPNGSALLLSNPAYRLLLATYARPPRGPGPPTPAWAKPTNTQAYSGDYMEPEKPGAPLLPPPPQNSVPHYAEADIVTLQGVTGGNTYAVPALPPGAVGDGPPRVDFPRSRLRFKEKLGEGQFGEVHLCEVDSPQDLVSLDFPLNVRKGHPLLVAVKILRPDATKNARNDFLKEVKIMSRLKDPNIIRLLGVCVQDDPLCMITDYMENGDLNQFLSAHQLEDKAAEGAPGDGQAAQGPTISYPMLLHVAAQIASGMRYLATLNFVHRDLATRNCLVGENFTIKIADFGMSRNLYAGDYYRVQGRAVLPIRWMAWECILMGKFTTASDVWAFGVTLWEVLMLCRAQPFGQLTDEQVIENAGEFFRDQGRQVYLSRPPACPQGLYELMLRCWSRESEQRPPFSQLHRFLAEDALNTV

EIF2AK2 (human) = EIF2AK2 (human) (UniProt P19525)
ERBB4 (human) = ERBB4 (human) (UniProt Q15303)
[1] = test system: FLT3 (human), P36888 [ITD]
HCK (human) = HCK (human) (UniProt P08631)
HUNK (human) = HUNK (human) (UniProt P57058)
IGF1R (human) = IGF1R (human) (UniProt P08069)
IRAK4 (human) = IRAK4 (human) (UniProt Q9NWZ3)
ITK (human) = ITK (human) (UniProt Q08881)
[2] = test system: KIT (human), P10721 [V559D]
LRRK2 (human) = LRRK2 (human) (UniProt Q5S007)
MAP3K11 (human) = MAP3K11 (human) (UniProt Q16584)
MAP4K5 (human) = MAP4K5 (human) (UniProt Q9Y4K4)
MAPK10 (human) = MAPK10 (human) (UniProt P53779)
MAPKAPK5 (human) = MAPKAPK5 (human) (UniProt Q8IW41)
MAPKAPK5 (human), sequence (Q8IW41 whole entry, looked up): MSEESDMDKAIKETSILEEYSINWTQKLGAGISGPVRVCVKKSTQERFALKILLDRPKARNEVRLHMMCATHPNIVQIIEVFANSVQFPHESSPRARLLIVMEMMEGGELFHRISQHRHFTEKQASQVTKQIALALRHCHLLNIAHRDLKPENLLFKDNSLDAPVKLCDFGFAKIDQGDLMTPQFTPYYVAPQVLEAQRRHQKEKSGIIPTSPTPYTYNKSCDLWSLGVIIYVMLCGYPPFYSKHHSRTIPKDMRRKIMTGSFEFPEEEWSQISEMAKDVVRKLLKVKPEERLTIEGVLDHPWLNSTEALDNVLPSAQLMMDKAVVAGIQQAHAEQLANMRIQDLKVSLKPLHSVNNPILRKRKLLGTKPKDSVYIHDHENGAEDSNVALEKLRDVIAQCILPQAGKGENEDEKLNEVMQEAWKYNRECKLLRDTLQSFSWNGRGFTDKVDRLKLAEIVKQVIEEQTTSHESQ

MARK4 (human) = MARK4 (human) (UniProt Q96L34)
MATK (human) = MATK (human) (UniProt P42679)
NUAK2 (human) = NUAK2 (human) (UniProt Q9H093)
OXSR1 (human) = OXSR1 (human) (UniProt O95747)
[3] = test system: PIK3CA (human), P42336 [E542K]
PKN2 (human) = PKN2 (human) (UniProt Q16513)
PLK1 (human) = PLK1 (human) (UniProt P53350)
PRKACA (human) = PRKACA (human) (UniProt P17612)
PRKD3 (human) = PRKD3 (human) (UniProt O94806)
RPS6KA5 KD1 (human) = RPS6KA5 KD1 (human) (UniProt O75582)
RPS6KB1 (human) = RPS6KB1 (human) (UniProt P23443)
RPS6KB1 (human), sequence (P23443 whole entry, looked up): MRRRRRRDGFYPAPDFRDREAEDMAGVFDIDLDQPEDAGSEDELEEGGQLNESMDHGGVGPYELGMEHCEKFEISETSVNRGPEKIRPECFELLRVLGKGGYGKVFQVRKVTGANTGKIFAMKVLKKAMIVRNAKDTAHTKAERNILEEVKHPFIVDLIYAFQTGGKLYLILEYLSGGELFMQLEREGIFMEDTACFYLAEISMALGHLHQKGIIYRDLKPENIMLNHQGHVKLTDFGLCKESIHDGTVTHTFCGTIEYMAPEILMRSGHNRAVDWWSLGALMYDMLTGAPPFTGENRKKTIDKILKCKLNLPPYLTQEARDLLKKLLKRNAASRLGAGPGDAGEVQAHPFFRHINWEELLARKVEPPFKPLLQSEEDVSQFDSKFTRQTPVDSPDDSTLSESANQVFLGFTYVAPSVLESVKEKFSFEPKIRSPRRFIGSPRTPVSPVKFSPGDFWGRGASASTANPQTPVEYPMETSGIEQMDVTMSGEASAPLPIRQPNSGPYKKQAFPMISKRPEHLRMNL

SIK1 (human) = SIK1 (human) (UniProt P57059)
SIK1 (human), sequence (P57059 whole entry, looked up): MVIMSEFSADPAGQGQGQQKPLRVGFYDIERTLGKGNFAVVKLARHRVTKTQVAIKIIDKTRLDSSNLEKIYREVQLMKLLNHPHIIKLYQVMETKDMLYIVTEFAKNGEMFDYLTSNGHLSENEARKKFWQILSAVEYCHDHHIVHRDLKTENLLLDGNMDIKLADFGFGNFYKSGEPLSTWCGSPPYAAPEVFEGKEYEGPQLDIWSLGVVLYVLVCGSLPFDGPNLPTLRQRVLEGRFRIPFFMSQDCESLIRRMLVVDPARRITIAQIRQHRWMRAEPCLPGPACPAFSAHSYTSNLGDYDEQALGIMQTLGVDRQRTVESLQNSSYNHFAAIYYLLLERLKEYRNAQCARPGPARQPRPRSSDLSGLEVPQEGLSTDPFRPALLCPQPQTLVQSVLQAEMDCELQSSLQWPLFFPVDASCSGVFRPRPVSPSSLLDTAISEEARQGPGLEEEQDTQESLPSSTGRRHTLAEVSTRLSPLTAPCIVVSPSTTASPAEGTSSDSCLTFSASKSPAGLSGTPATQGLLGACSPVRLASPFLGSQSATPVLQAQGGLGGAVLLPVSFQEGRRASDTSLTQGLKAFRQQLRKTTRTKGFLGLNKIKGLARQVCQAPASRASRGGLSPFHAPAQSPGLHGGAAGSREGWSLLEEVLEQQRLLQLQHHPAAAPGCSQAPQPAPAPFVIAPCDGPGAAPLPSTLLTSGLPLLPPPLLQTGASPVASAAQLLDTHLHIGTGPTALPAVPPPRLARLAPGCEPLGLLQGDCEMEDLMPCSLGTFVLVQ

SIK3 (human) = SIK3 (human) (UniProt Q9Y2K2)
SLK (human) = SLK (human) (UniProt Q9H2G2)
SLK (human), sequence (Q9H2G2 whole entry, looked up): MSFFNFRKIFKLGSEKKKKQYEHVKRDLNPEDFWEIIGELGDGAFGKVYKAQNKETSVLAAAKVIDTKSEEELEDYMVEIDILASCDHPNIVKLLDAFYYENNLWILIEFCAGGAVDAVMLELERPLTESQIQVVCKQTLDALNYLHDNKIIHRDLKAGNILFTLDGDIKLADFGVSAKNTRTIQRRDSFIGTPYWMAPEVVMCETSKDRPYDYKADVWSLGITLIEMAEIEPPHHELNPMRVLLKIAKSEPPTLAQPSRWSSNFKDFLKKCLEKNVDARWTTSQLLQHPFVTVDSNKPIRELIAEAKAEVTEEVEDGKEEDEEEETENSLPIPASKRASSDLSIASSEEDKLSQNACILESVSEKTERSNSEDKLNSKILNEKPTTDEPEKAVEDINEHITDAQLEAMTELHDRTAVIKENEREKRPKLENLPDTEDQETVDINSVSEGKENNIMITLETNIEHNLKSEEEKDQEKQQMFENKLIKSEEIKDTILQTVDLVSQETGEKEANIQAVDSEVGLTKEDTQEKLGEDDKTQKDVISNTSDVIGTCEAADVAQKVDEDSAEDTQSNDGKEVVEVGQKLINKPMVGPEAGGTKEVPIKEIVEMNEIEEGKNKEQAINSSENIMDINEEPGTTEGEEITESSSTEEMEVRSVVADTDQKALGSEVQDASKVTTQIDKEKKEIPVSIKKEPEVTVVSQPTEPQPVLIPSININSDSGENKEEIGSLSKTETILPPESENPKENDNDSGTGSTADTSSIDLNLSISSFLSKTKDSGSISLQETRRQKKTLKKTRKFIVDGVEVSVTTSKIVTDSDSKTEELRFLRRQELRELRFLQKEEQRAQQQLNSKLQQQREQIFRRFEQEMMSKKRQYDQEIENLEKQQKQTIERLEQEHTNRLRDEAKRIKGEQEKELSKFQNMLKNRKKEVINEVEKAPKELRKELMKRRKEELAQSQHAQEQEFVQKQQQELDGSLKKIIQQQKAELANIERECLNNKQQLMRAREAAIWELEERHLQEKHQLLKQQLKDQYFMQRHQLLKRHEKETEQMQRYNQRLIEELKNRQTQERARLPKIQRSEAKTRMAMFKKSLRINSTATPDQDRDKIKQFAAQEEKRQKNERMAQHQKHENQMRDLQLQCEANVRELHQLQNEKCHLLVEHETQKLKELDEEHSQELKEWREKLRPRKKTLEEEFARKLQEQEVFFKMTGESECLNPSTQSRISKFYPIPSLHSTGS

SRC (human) = SRC (human) (UniProt P12931)
SRPK3 (human) = SRPK3 (human) (UniProt Q9UPE1)
TNK1 (human) = TNK1 (human) (UniProt Q13470)

Molecule `Cn1c2ccccc2c2c3c(c4c5ccccc5n(CCC#N)c4c21)CNC3=O` has a kinase still bound, per cent of control (ACVR2B (human)) of 97%, a kinase still bound, per cent of control (ANKK1 (human)) of 70% and a kinase still bound, per cent of control (AXL (human)) of 72%. For the same molecule, the kinase still bound, per cent of control (BMX (human)) was 66%, the kinase still bound, per cent of control (CAMK2A (human)) was 27% and the kinase still bound, per cent of control (CAMK2G (human)) was 41%. It also gave a kinase still bound, per cent of control (CAMKK1 (human)) of 6.1%, a kinase still bound, per cent of control (CDK2 (human)) of 36% and a kinase still bound, per cent of control (CSNK1A1L (human)) of 100%. It also gave a kinase still bound, per cent of control (DCLK1 (human)) of 87%, a kinase still bound, per cent of control (DDR1 (human)) of 100% and a kinase still bound, per cent of control (EIF2AK2 (human)) of 89%. For the same molecule, the kinase still bound, per cent of control (ERBB4 (human)) was 82%, the kinase still bound, per cent of control [1] was 0.2% and the kinase still bound, per cent of control (HCK (human)) was 100%. The kinase still bound, per cent of control (HUNK (human)) was 87%, the kinase still bound, per cent of control (IGF1R (human)) was 85% and the kinase still bound, per cent of control (IRAK4 (human)) was 0.2%. The kinase still bound, per cent of control (ITK (human)) was 40%, the kinase still bound, per cent of control [2] was 71% and the kinase still bound, per cent of control (LRRK2 (human)) was 19%. The kinase still bound, per cent of control (MAP3K11 (human)) was 17%, the kinase still bound, per cent of control (MAP4K5 (human)) was 7.8% and the kinase still bound, per cent of control (MAPK10 (human)) was 20%. It also gave a kinase still bound, per cent of control (MAPKAPK5 (human)) of 100%, a kinase still bound, per cent of control (MARK4 (human)) of 72% and a kinase still bound, per cent of control (MATK (human)) of 67%. For the same molecule, the kinase still bound, per cent of control (NUAK2 (human)) was 4.4%, the kinase still bound, per cent of control (OXSR1 (human)) was 100% and the kinase still bound, per cent of control [3] was 100%. The kinase still bound, per cent of control (PKN2 (human)) was 12%, the kinase still bound, per cent of control (PLK1 (human)) was 100% and the kinase still bound, per cent of control (PRKACA (human)) was 100%. It also gave a kinase still bound, per cent of control (PRKD3 (human)) of 2.8%, a kinase still bound, per cent of control (RPS6KA5 KD1 (human)) of 52% and a kinase still bound, per cent of control (RPS6KB1 (human)) of 23%. For the same molecule, the kinase still bound, per cent of control (SIK1 (human)) was 83%, the kinase still bound, per cent of control (SIK3 (human)) was 100% and the kinase still bound, per cent of control (SLK (human)) was 69%. For the same molecule, the kinase still bound, per cent of control (SRC (human)) was 100%, the kinase still bound, per cent of control (SRPK3 (human)) was 3.8% and the kinase still bound, per cent of control (TNK1 (human)) was 2%.
